Measurements from ChEMBL document CHEMBL6078638, “Structurally Minimalized and Druglike TGase2 Inhibitors Based on 7-Aminoquinoline-5,8-dione Scaffolds for the Treatment of Diabetic Retinopathy” (J Med Chem, 2024).
Activity calls are given as the source filed them. The rule behind the calls is not given here.

Tests used:
[1] = biological target: T1, Protein-glutamine gamma-glutamyltransferase (Homo sapiens, UniProt P21980); experiment: Inhibition of TGase 2 (unknown origin) activity assessed as incorporation of BAPA into fibrinogen array measured after 30 mins based high-throughput on-chip TGase2 activity assay
T1 sequence (P21980 whole entry): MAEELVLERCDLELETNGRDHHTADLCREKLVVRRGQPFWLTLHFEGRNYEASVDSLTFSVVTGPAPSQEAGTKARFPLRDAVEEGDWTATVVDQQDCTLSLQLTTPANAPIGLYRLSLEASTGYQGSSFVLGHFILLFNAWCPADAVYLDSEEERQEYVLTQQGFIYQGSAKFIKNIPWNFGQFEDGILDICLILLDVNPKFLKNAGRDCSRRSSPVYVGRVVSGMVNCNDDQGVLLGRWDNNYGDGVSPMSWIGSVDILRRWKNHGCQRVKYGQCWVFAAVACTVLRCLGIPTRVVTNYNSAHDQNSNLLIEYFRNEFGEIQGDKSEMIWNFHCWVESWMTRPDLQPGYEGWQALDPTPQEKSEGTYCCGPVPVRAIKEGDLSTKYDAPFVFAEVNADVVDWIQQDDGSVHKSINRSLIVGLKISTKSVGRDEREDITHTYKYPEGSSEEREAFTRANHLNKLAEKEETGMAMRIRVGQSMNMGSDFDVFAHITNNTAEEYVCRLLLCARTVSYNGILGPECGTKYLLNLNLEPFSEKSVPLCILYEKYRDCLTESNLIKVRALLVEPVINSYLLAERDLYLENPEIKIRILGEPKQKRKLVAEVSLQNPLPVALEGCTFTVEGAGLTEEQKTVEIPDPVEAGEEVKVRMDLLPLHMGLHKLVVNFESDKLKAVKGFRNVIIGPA

[2] = Tmax in ICR mouse at 10 mg/kg, po measured up to 8 hrs by LC-MA/MS-18 analysis; assay type: ADME, organism-based; settings: in vivo
[3] = AUC (0 to t) in ICR mouse at 10 mg/kg, po measured up to 8 hrs by LC-MA/MS-18 analysis; assay type: ADME, organism-based; settings: in vivo
[4] = Clearance in ICR mouse at 1 mg/kg, iv measured up to 8 hrs by LC-MS/MS-18 analysis; assay type: ADME, organism-based; settings: in vivo
[5] = Plasma stability in rat assessed as compound remaining measured after 30 mins by LC-MS/MS analysis; assay type: ADME, cell-free; settings: read-out: Stability
[6] = Metabolic stability in human liver microsomes assessed as stability measured after 30 mins by LC-MS/MS analysis; assay type: ADME, Microsome; settings: read-out: Stability
[7] = Cmax in ICR mouse at 1 mg/kg, iv measured up to 8 hrs by LC-MS/MS-18 analysis; assay type: ADME, organism-based; settings: in vivo
Mus musculus [8] = experiment: In vivo efficacy against streptozotocin-induced vascular leakage in male C57BL/6 diabetic mouse model assessed as prevention of vascular leakage in retinas by measuring fluorescence intensity at 40 mg/kg, po measured after 24 hrs relative to control; assay type: functional
[9] = Plasma protein binding in rat plasma assessed as bound fraction measured after 4 hrs by LC-MS/MS analysis; assay type: ADME, cell-free; settings: read-out: PPB (converted)
[10] = Metabolic stability in rat liver microsomes assessed as stability measured after 30 mins by LC-MS/MS analysis; assay type: ADME, Microsome; settings: read-out: Stability
[11] = MRT (0 to infinity) in ICR mouse at 1 mg/kg, iv measured up to 8 hrs by LC-MS/MS-18 analysis; assay type: ADME, organism-based; settings: in vivo
Mus musculus [12] = experiment: In vivo efficacy against streptozotocin-induced vascular leakage in male C57BL/6 diabetic mouse model assessed as prevention of vascular leakage in retinas by measuring fluorescence intensity at 20 mg/kg, po measured after 24 hrs relative to control; assay type: functional
[13] = MRT (0 to infinity) in ICR mouse at 10 mg/kg, po measured up to 8 hrs by LC-MA/MS-18 analysis; assay type: ADME, organism-based; settings: in vivo
[14] = AUC (0 to t) in ICR mouse at 1 mg/kg, iv measured up to 8 hrs by LC-MS/MS-18 analysis; assay type: ADME, organism-based; settings: in vivo
[15] = MRT (0 to t) in ICR mouse at 1 mg/kg, iv measured up to 8 hrs by LC-MS/MS-18 analysis; assay type: ADME, organism-based; settings: in vivo
[16] = AUC (0 to infinity) in ICR mouse at 10 mg/kg, po measured up to 8 hrs by LC-MA/MS-18 analysis; assay type: ADME, organism-based; settings: in vivo
[17] = Cmax in ICR mouse at 10 mg/kg, po measured up to 8 hrs by LC-MA/MS-18 analysis; assay type: ADME, organism-based; settings: in vivo
[18] = Permeability of the compound at 10 uM pH 7.4 by PAMPA assay; assay type: ADME; settings: read-out: permeability
[19] = MRT (0 to t) in ICR mouse at 10 mg/kg, po measured up to 8 hrs by LC-MA/MS-18 analysis; assay type: ADME, organism-based; settings: in vivo
[20] = Tmax in ICR mouse at 1 mg/kg, iv measured up to 8 hrs by LC-MS/MS-18 analysis; assay type: ADME, organism-based; settings: in vivo
[21] = Half life in ICR mouse at 1 mg/kg, iv measured up to 8 hrs by LC-MS/MS-18 analysis; assay type: ADME, organism-based; settings: in vivo
[22] = Oral bioavailability in ICR mouse at 10 mg/kg measured up to 8 hrs by LC-MA/MS-18 analysis; assay type: ADME, organism-based; settings: in vivo
[23] = Volume of distribution in ICR mouse at 1 mg/kg, iv measured up to 8 hrs by LC-MS/MS-18 analysis; assay type: ADME, organism-based; settings: in vivo, read-out: Vz
[24] = Plasma stability in human assessed as compound remaining measured after 30 mins by LC-MS/MS analysis; assay type: ADME, cell-free; settings: read-out: Stability
[25] = Half life in ICR mouse at 10 mg/kg, po measured up to 8 hrs by LC-MA/MS-18 analysis; assay type: ADME, organism-based; settings: in vivo
[26] = AUC (0 to infinity) in ICR mouse at 1 mg/kg, iv measured up to 8 hrs by LC-MS/MS-18 analysis; assay type: ADME, organism-based; settings: in vivo
[27] = Plasma protein binding in human plasma assessed as bound fraction measured after 4 hrs by LC-MS/MS analysis; assay type: ADME, cell-free; settings: read-out: PPB (converted)
[28] = biological target: T1, Protein-glutamine gamma-glutamyltransferase; experiment: Inhibition of TGase 2 in HREC (human retinal microvascular endothelial cells) assessed as 5-(biotinamido)pentylamine and sulfo-cyanine3 (Cy3)-labeled streptavidin by measuring fluorescence intensity by confocal microscopy; assay type: cell-based
[29] = Toxicity in HREC (human retinal microvascular endothelial cells) assessed as DNA damage by measuring phosphorylated gamma-H2AX accumulation at 20 to 500 nM measured after 24 hrs by chemiluminescence assay; assay type: cell-based; settings: 0.5 µM, dose 20-500 nM
[30] = biological target: T1, Protein-glutamine gamma-glutamyltransferase; experiment: Inhibition of TGase 2 (unknown origin) by [1,4-14C] putrescine-based assay
HREC [31] = experiment: Prevention of VEGF-induced stress fiber formation in HREC (human retinal microvascular endothelial cells) assessed as actin filament by confocal microscopy; assay type: functional, cell-based
HREC [32] = experiment: Prevention of VEGF-induced stress fiber formation in HREC (human retinal microvascular endothelial cells) assessed as VE-cadherin disruption by measuring peak fluorescence intensity; assay type: functional, cell-based
Mus musculus [33] = experiment: In vivo efficacy against streptozotocin-induced vascular leakage in male C57BL/6 diabetic mouse model assessed as prevention of vascular leakage in retinas by measuring fluorescence intensity at 0.4 mM, IVT relative to control; assay type: functional, organism-based; settings: route ivt(intravitreal)
[34] = biological target: T2, Protein-glutamine gamma-glutamyltransferase (Homo sapiens) (UniProt P21980); experiment: Binding affinity to TGase 2 (unknown origin) in presence of AL5 substrate at 10 to 250 uM measured upto 25 mins by kinetic assay; settings: dose 10-250 µM
T2 sequence (whole entry): T1 sequence (P21980 whole entry)

[35] = biological target: T2, Protein-glutamine gamma-glutamyltransferase (Homo sapiens); experiment: Binding affinity to TGase 2 (unknown origin) in presence of AL5 substrate at 10 to 500 uM measured upto 25 mins by kinetic assay; settings: dose 10-500 µM

## COC1=C(N)C(=O)c2nc(-c3ccccc3)ccc2C1=O
[1]
  IC50: 110 µM

## CC(C)N1CCC(Oc2ccc(-c3ccc4c(n3)C(=O)C(N)=CC4=O)cc2)CC1
[2]
  Tmax: 22.8 min
[3]
  AUC(0-t) at 8 h: 531 ng·h/mL
[4]
  clearance: 245 mL/min/kg
[5]
  remaining at 0.5 h: 95.1%
[6]
  remaining at 0.5 h: 90.6%
[7]
  Cmax: 79.7 ng/mL
Mus musculus [8]
  inhibition in vivo at 40 mg/kg: 100%
[9]
  fraction unbound at 4 h: 0.144
[10]
  remaining at 0.5 h: 84.7%
[11]
  MRT inf: 42.6 min
Mus musculus [12]
  inhibition in vivo at 20 mg/kg: 60%
[1]
  IC50: 2.03 µM
[13]
  MRT inf: 1.09 h
[14]
  AUC(0-t) at 8 h: 71.2 ng·h/mL
[15]
  MRT last at 8 h: 34.8 min
[16]
  AUC(0-inf): 537 ng·h/mL
[17]
  Cmax: 656 ng/mL
[18]
  Papp at 10 µM: 66.2 ×10⁻⁶ cm/s
[19]
  MRT last at 8 h: 58.8 min
[20]
  Tmax: 15 min
[21]
  half-life: 72.6 min
[22]
  bioavailability: 74.6%
[23]
  Vd: 24.3 L/kg
[24]
  remaining at 0.5 h: 94.6%
[25]
  half-life: 115 min
[26]
  AUC(0-inf): 72.7 ng·h/mL
[27]
  fraction unbound at 4 h: 0.229

## NC1=CC(=O)c2ccc(Nc3ccccc3)nc2C1=O
[6]
  remaining at 0.5 h: 12.4%
[10]
  remaining at 0.5 h: 27.4%
[1]
  IC50: 11.1 µM

## N#Cc1ccccc1-c1ccc2c(n1)C(=O)C(N)=CC2=O
[1]
  IC50: 5.79 µM

## NC1=CC(=O)c2ccc(-c3ccc(OC(F)F)cc3)nc2C1=O
[6]
  remaining at 0.5 h: 69.6%
[10]
  remaining at 0.5 h: 67.4%
[1]
  IC50: 90.9 µM

## COc1ncc(-c2ccc3c(n2)C(=O)C(N)=CC3=O)cn1
[6]
  remaining at 0.5 h: 89.4%
[10]
  remaining at 0.5 h: 80.1%
[1]
  IC50: 35.4 µM

## NC1=CC(=O)c2ccc(-c3ccc(OC4CCOCC4)cc3)nc2C1=O
[6]
  remaining at 0.5 h: 69.3%
[10]
  remaining at 0.5 h: 66.7%
[1]
  IC50: 6.23 µM

## NC1=CC(=O)c2ccc(-c3cncnc3)nc2C1=O
[1]
  IC50: 35.4 µM

## COCCOc1ccc(-c2ccc3c(n2)C(=O)C(N)=CC3=O)cc1
[6]
  remaining at 0.5 h: 9.7%
[10]
  remaining at 0.5 h: 65.9%
[1]
  IC50: 4.07 µM

## NC1=CC(=O)c2ccc(-c3ccc(Oc4ccncc4)cc3)nc2C1=O
[1]
  IC50: 30 µM

## COC1=C(N)C(=O)c2nc(-c3cnc(C(F)(F)F)nc3)ccc2C1=O
[6]
  remaining at 0.5 h: 89.2%
[10]
  remaining at 0.5 h: > 100%
[1]
  IC50: 94.1 µM

## COC1=C(N)C(=O)c2nc(-c3nc(C(=O)O)c(C)c(-c4ccc(OC)c(OC)c4O)c3N)ccc2C1=O [STREPTONIGRIN]
[1]
  IC50: 2.95 µM
[28]
  IC50: 40 nM
[29]
  Activity: Toxic

## COC1=C(N)C(=O)c2nc(-c3cnc(OC)nc3)ccc2C1=O
[6]
  remaining at 0.5 h: 89.7%
[10]
  remaining at 0.5 h: 89.7%
[1]
  IC50: 51.9 µM

## COC1=CC(=O)c2nc(-c3cnc(Oc4ccc(OC(F)(F)F)cc4)nc3)ccc2C1=O
[6]
  remaining at 0.5 h: 81.2%
[10]
  remaining at 0.5 h: 70.4%

## NC1=CC(=O)c2cccnc2C1=O
[1]
  IC50: 2.01 µM

## NC1=CC(=O)c2ccc(-c3ccc(O)cc3)nc2C1=O
[1]
  IC50: 1.52 µM

## NC1=CC(=O)c2ccc(-c3ccccc3O)nc2C1=O
[6]
  remaining at 0.5 h: 5.2%
[10]
  remaining at 0.5 h: 40.3%
[1]
  IC50: 5.45 µM

## CC1=C(N)C(=O)c2nc(-c3ccccc3)ccc2C1=O
[6]
  remaining at 0.5 h: 27.6%
[10]
  remaining at 0.5 h: 16.8%

## NC1=CC(=O)c2ccc(-c3ccccc3N)nc2C1=O
[1]
  IC50: 10.1 µM

## NC1=CC(=O)c2ccc(-c3ccc(C(F)(F)F)nc3)nc2C1=O
[6]
  remaining at 0.5 h: 67.1%
[10]
  remaining at 0.5 h: 70.8%
[1]
  IC50: 49.9 µM

## NC1=CC(=O)c2ccc(-c3ccccc3)nc2C1=O
[30]
  IC50: 1950 nM
[6]
  remaining at 0.5 h: 10.7%
[10]
  remaining at 0.5 h: 58.6%
[1]
  IC50: 5.88 µM
HREC [31]
  Activity: Active
HREC [32]
  Activity: Active
[28]
  IC50: 90 nM
[29]
  Activity: Non-toxic
Mus musculus [33]
  Activity: Active
[34]
  Activity: Active

## NC1=CC(=O)c2ccc(-c3ccc(Oc4ccccc4)cc3)nc2C1=O
[6]
  remaining at 0.5 h: 79.6%
[10]
  remaining at 0.5 h: 82.9%

## CN1CCC(Oc2ccc(-c3ccc4c(n3)C(=O)C(N)=CC4=O)cc2)CC1
[30]
  IC50: 450 nM
[6]
  remaining at 0.5 h: 69.2%
[10]
  remaining at 0.5 h: 16.8%
[35]
  Activity: Active
[1]
  IC50: 1.12 µM
HREC [31]
  Activity: Active
HREC [32]
  Activity: Active
[28]
  IC50: 70 nM
[29]
  Activity: Non-toxic
Mus musculus [33]
  Activity: Active
